Among the test systems are A498 renal; K-562 leukemia; MALME-3M melanoma; MDA-MB-231 breast; MOLT-4 leukemia; OVCAR-4 ovarian; SNB-19 CNS; UACC-62 melanoma; UO-31 renal; SR leukemia.
What all share (test): NCI anticancer screen, dose series, 48 h

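Method: 48-hour compound exposure of cells in 96-well plates, five concentrations, linear interpolation of endpoints. At the TGI there is no net growth.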

Take `O=C(CCc1ccccc1)ON1C(=S)C(c2ccccc2)(c2ccccc2)N=C1Sc1ccccc1`: the TGI in the assay on A498 renal was more than 100 µM; in the assay with K-562 leukemia, more than 100 µM; with MALME-3M melanoma, more than 100 µM; with MDA-MB-231 breast, more than 100 µM; with MOLT-4 leukemia, 28.6 µM; with OVCAR-4 ovarian, more than 100 µM. The TGI with SNB-19 CNS, with UACC-62 melanoma and in the assay with UO-31 renal was more than 100 µM each time.
Consider `CC1C(c2ccc(Cl)cc2)c2cc3c(cc2OC1N1CCOCC1)OCO3` (centres undefined), for which the TGI with K-562 leukemia was more than 100 µM; in the assay on MOLT-4 leukemia it was more than 100 µM; in the assay on SNB-19 CNS, more than 100 µM; in the assay with SR leukemia, 17.9 µM; in the assay with UACC-62 melanoma, more than 100 µM; in the assay with UO-31 renal it was more than 100 µM.
Take `COc1cc(C2c3cc4c(cc3OC(N3CCNCC3)C2C)OCO4)cc(OC)c1OC` (centres undefined): the TGI in the assay on A498 renal was 52.1 µM; in the assay on K-562 leukemia, 10.9 µM; in the assay on MDA-MB-231 breast, 2.46 µM; in the assay on MOLT-4 leukemia, 14.4 µM; with OVCAR-4 ovarian, 21.6 µM; with SNB-19 CNS, more than 82.3 µM. The TGI with SR leukemia is 3.88 µM; in the assay with UACC-62 melanoma it was 14.9 µM; in the assay on UO-31 renal, 15.6 µM.
With `O=c1cnn(CCOCP(=O)(O)O)c(=O)[nH]1`, the TGI in the assay with A498 renal, in the assay on K-562 leukemia, in the assay with MALME-3M melanoma, with MDA-MB-231 breast, in the assay on MOLT-4 leukemia and with SNB-19 CNS was more than 100 µM throughout. In the assay with UO-31 renal, this compound had a TGI of more than 100 µM.
Take `COc1cc(C2c3cc4c(cc3OC(NCCO)C2C)OCO4)cc(OC)c1OC` (centres undefined): the TGI in the assay with A498 renal is 2.81 µM; in the assay with MALME-3M melanoma it was more than 100 µM; in the assay on MDA-MB-231 breast, more than 100 µM; with MOLT-4 leukemia, 26.3 µM; with OVCAR-4 ovarian it was more than 100 µM; in the assay with SNB-19 CNS it was more than 100 µM. Further, the TGI in the assay on UACC-62 melanoma was more than 100 µM; in the assay with UO-31 renal, more than 76.4 µM.
`O=C(CCc1ccccc1)On1c(-c2ccccc2)nc2ccccc2c1=S`: the TGI with A498 renal is more than 100 µM; in the assay on K-562 leukemia, more than 100 µM; in the assay on MALME-3M melanoma, 22.6 µM; in the assay with MDA-MB-231 breast, more than 100 µM; in the assay on MOLT-4 leukemia it was 23.3 µM; in the assay with OVCAR-4 ovarian, more than 100 µM. Besides, the TGI is more than 100 µM in the assay with SNB-19 CNS, 36.9 µM in the assay with UACC-62 melanoma and 39.3 µM in the assay on UO-31 renal.
Turning to `CCc1ccccc1NNc1cc(=O)[nH]c(=O)[nH]1`, the TGI was 45.8 µM in the assay with A498 renal; more than 100 µM in the assay with K-562 leukemia; 32.3 µM with MDA-MB-231 breast; 85.7 µM in the assay with MOLT-4 leukemia; 38 µM in the assay on OVCAR-4 ovarian; 43.5 µM with SNB-19 CNS. In addition, the TGI in the assay on SR leukemia was more than 100 µM; in the assay on UACC-62 melanoma it was 35.9 µM; with UO-31 renal it was 31.1 µM.
Regarding `Clc1ccc(OCc2nn3c(CCc4nnc5sc(COc6ccc(Cl)cc6)nn45)nnc3s2)cc1`, the TGI with A498 renal is 42.8 µM; in the assay with K-562 leukemia it was more than 100 µM; in the assay with MDA-MB-231 breast, 61.8 µM; with MOLT-4 leukemia, more than 100 µM; with OVCAR-4 ovarian, 57.7 µM; with UO-31 renal it was 3.03 µM.
`COc1cccc(/C=N/[N-]C(N)=O)c1[O-].[Cu+2].[OH3+].c1ccc(-c2ccccn2)nc1`: the TGI in the assay on A498 renal is 35.8 µM; with K-562 leukemia it was 66 µM; with MALME-3M melanoma, more than 100 µM; in the assay on MOLT-4 leukemia, more than 100 µM; in the assay on OVCAR-4 ovarian it was 33.1 µM; in the assay on SNB-19 CNS it was 38.1 µM. Further, the TGI with SR leukemia is more than 100 µM; in the assay on UACC-62 melanoma it was 31.3 µM; in the assay with UO-31 renal, more than 100 µM.
`COc1cccc(-c2cc(=O)c3ccccc3[nH]2)c1`: the TGI in the assay on A498 renal, in the assay with K-562 leukemia, with MALME-3M melanoma, with MOLT-4 leukemia, with OVCAR-4 ovarian and in the assay with SNB-19 CNS was more than 100 µM each time. In addition, the TGI in the assay with SR leukemia, with UACC-62 melanoma and in the assay with UO-31 renal was more than 100 µM each time.
As to `CCOC(=O)C1=C(C)N(c2ccc(OC)cc2)C2(O)C=CC(=O)C3=C(O)c4ccccc4C(=O)C312` (centres undefined), the TGI in the assay on A498 renal was 27 µM; in the assay on K-562 leukemia it was 39.5 µM; with MALME-3M melanoma it was 1.17 µM; in the assay with MDA-MB-231 breast, 34.8 µM; in the assay on MOLT-4 leukemia it was 20.5 µM; in the assay on OVCAR-4 ovarian, 10.9 µM. In addition, the TGI turned out to be 41.1 µM in the assay on SNB-19 CNS, 26.4 µM with UACC-62 melanoma and 31 µM with UO-31 renal.
As for `O=C(OCC(Cl)(Cl)Cl)O[C@@H]1CCCC1(c1ccccc1)c1ccccc1`, the TGI is more than 100 µM in the assay with K-562 leukemia; more than 100 µM with MDA-MB-231 breast; 34.1 µM with MOLT-4 leukemia; more than 100 µM with OVCAR-4 ovarian; more than 100 µM with SNB-19 CNS; more than 100 µM in the assay on SR leukemia. The TGI in the assay on UACC-62 melanoma and in the assay with UO-31 renal was more than 100 µM in each case.
`c1cnc(N2CCN(Cc3c[nH]c4ccccc34)CC2)nc1`: the TGI in the assay with A498 renal, with K-562 leukemia, in the assay with MALME-3M melanoma, in the assay with MDA-MB-231 breast, in the assay on MOLT-4 leukemia and in the assay on OVCAR-4 ovarian was more than 100 µM throughout. Further, the TGI in the assay with SNB-19 CNS, with UACC-62 melanoma and in the assay with UO-31 renal was more than 100 µM throughout.
For the compound `CCOC(=O)N(c1ccccc1)N(CC)C(=O)/C(C)=N/Nc1ccc([N+](=O)[O-])cc1`, the TGI was 28 µM in the assay on A498 renal; 38.1 µM in the assay with K-562 leukemia; 33.5 µM in the assay on MALME-3M melanoma; 52.6 µM in the assay with MOLT-4 leukemia; 42.2 µM with OVCAR-4 ovarian; 34.9 µM in the assay with SNB-19 CNS. In addition, the TGI with SR leukemia stood at 69.3 µM; with UACC-62 melanoma it was 26.8 µM; in the assay with UO-31 renal, 29.5 µM.
Turning to `COc1cc(N(Cc2ccc3oc(=O)c(-c4ccccc4)nc3c2)Cc2ccc3oc(=O)c(-c4ccccc4)nc3c2)cc(OC)c1OC`, the TGI with K-562 leukemia, in the assay on MDA-MB-231 breast, with MOLT-4 leukemia, in the assay with OVCAR-4 ovarian, in the assay with SNB-19 CNS and with SR leukemia was more than 10 µM throughout. Further, the TGI with UACC-62 melanoma and in the assay on UO-31 renal was more than 10 µM in each case.

These data come from PubChem BioAssay (NCI).
